Measurements from PubChem BioAssay (NCI).
Values joined by “and” are separate entries in the source; they are usually repeats but may differ in a detail not shown here. Equal entries are not always repeated.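 Results reflect a 48-hour exposure of cells in 96-well plates to compound at five concentrations. At the GI50, growth is halved. Definition used: TGI = concentration required for complete inhibition of growth.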

How the values were obtained:
Test in all cases: inhibition of tumour cell growth, NCI panel, 48 h
[1] = tested on: SK-OV-3 ovarian
[2] = tested on: SF-539 CNS
[3] = tested on: COLO 205 colon
[4] = tested on: SK-MEL-5 melanoma
[5] = tested on: MALME-3M melanoma
[6] = tested on: UACC-257 melanoma
[7] = tested on: SW-620 colon
[8] = tested on: RPMI-8226 leukemia
[9] = tested on: HS 578T breast
[10] = tested on: UACC-62 melanoma

SMILES | GI50 [1] [µM] | TGI [1] | GI50 [2] [nM] | TGI [2] | GI50 [3] [nM] | TGI [3] | GI50 [4] | TGI [4] | GI50 [5] [nM] | TGI [5] | GI50 [6] | TGI [6] | GI50 [7] | TGI [7] | GI50 [8] | TGI [8] | GI50 [9] [µM] | TGI [9] [µM] | GI50 [10] [µM] | TGI [10]
N#C/C(=C\c1ccc(O)c(O)c1)C(=O)NCc1cccc(C(F)(F)F)c1 | 24.1 | 75.6 µM | 3510 | 17 µM | 24400 | 76.6 µM | 5290 nM | 19.3 µM | 2030 | 25.2 µM | 12200 nM | 52.5 µM | 9330 nM | 31.3 µM | 10200 nM | > 100 µM | 12 | 47.3 | 10.2 | 23.8 µM
C/C=C(/C)C(=O)OC1C=C(CO)C(=O)C(OC(=O)C2(C)OC2C)C1C(C)C (configuration not stated) | 4.45 | 14.3 µM | 1860 | 3.38 µM | 1850 | 3.43 µM | 1560 nM | 3.04 µM | 1740 | 3.53 µM | 1370 nM | 2.75 µM | 1980 nM | 4.16 µM | 1500 nM | 5.17 µM | 3.68 | 22.9 | 1.33 | 2.68 µM
CC[C@@]1(O)C(=O)OCc2c1cc1n(c2=O)Cc2cc3cc(O)ccc3nc2-1 | < 0.0124 | 0.7 µM and 1.85 µM | – | 0.0495 µM and 0.0166 µM | 573 | 2.36 µM and 2.56 µM | 24.7 nM and 16.7 nM | 0.111 µM and 0.0959 µM | 56.7 | 1.45 µM and 0.877 µM | 47 nM and 156 nM | 0.481 µM and 2.1 µM | 17.9 nM and < 15.4 nM | 22.9 µM and 3.78 µM | 139 nM and 277 nM | 6.03 µM and 4.87 µM | – | 8.52 | – | 0.0795 µM and 0.0565 µM
Nc1nc(N)c2c(Cl)c(CNc3ccc(Cl)c(Cl)c3)ccc2n1 | – | 16.1 µM | – | 1.21 µM | – | 13 µM | – | 4.65 µM | – | 12.8 µM | – | 19.4 µM | – | 14.6 µM | – | 12.5 µM | – | 11.9 | – | 13.7 µM
CN1C(=O)[C@@H](CC2CCCC2)N(C2CCCC2)c2nc(Nc3cc(Cl)c(O)c(Cl)c3)ncc21 | 17.1 | 75.9 µM | 19800 | > 100 µM | 23000 | 56.1 µM | 17400 nM | 32.9 µM | 20700 | 75.2 µM | 25100 nM | > 100 µM | 28200 nM | > 100 µM | 10400 nM | 49 µM | 21.6 | > 100 | 11.1 | 27.4 µM
CC(=O)NC(CCc1ccc(Cl)c(Cl)c1)c1cccc(O)c(=O)c1 (configuration not stated) | 1.43 | 17.4 µM | 514 | 5.35 µM | 363 | 18.6 µM | 234 nM | 1.14 µM | 1450 | 7.12 µM | 649 nM | 4.4 µM | 531 nM | 23.7 µM | 1220 nM | 19.7 µM | 2.61 | 32.5 | 0.619 | 1.98 µM
C=C(CC)C(=O)c1ccc(OCC(=O)O)c(Cl)c1Cl | – | > 100 µM | – | 24.4 µM | – | 33.1 µM | – | > 55.7 µM | – | 31.7 µM | – | 55.4 µM | – | 34.2 µM | – | > 100 µM | – | 45.9 | – | 30.3 µM
